# Experimental data published in PubChem BioAssay AID651569 (Sanford-Burnham Center for Chemical Genomics, 2012).
# Active and inactive are the calls of the source. The rule behind the calls is not given here.
# Test system: luminescent cytotoxicity (cell viability) counter-screen
# Test: cytotoxicity of Gli-SUFU antagonist hits, dose response, cytotoxicity control for Gli-SUFU antagonist project, cell-based, luminescence, uHTS hits (AID 651569);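 note: compound exposure lasted overnight before the viability readout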
row,SMILES,IC50
1,CC(=O)c1c(C)[nH]c(C(=O)OCC(=O)Nc2cccc(S(=O)(=O)N3CCCC3)c2)c1C,> 20 µM (inactive)
2,Cc1cc(N/N=C/c2ccc(O)cc2O)nc(-n2nc(C)cc2C)n1,> 20 µM (inactive)
3,S=C(Nc1ccccc1)N1CCC(Cc2ccccc2)CC1,> 20 µM (inactive)
4,O=C(Cc1csc(Nc2nc(=S)[nH]c3ccccc23)n1)NCCCN1CCN(c2ccccc2F)CC1,> 20 µM (inactive)
5,Cc1cc(Nc2ccc([N+](=O)[O-])cc2)c2ccccc2n1,> 20 µM (inactive)
6,O=C(Nc1cccc(C(F)(F)F)c1)C1CCN(S(=O)(=O)c2ccc(N3CCCC3=O)cc2)CC1,> 20 µM (inactive)
7,Cc1sc2ncnc(N3CCN(S(=O)(=O)c4ccc(C(C)(C)C)cc4)CC3)c2c1C,> 20 µM (inactive)
8,Clc1ccc(-n2cc(-c3ccc(Br)cc3)[n+]3c2CCCCC3)cc1,> 20 µM (inactive)
9,CCN(CC)S(=O)(=O)c1ccc(S(=O)(=O)Nc2c(C)nn(C)c2C)cc1,> 20 µM (inactive)
10,CC(C)(C)[C@H]1COC(=O)[C@H](NC(=O)OCC2c3ccccc3-c3ccccc32)C/C=C\C[C@@H](CC(=O)N[C@@H](CO)Cc2ccccc2)C(=O)N1,> 20 µM (inactive)
11,O=C(COC(=O)c1ccc2[nH]c3c(c2c1)CCCC3)Nc1ccccc1Cl,> 20 µM (inactive)
12,Clc1ccc(-c2cn(-c3ccccc3)c3[n+]2CCS3)cc1,> 20 µM (inactive)
13,COCCOc1nc2c(c(=O)n(C)c(=O)n2C)n1Cc1cccc(OC)c1,> 20 µM (inactive)
14,CCC(=O)c1ccc(OCC(O)Cn2c(C)nc3ccccc32)cc1 (configuration not stated),> 20 µM (inactive)
15,O=C(N[C@H]1C/C=C\C[C@@H](CC(=O)N(CCO)Cc2ccccc2)C(=O)N[C@H](Cc2c[nH]c3ccccc23)COC1=O)OCC1c2ccccc2-c2ccccc21,> 20 µM (inactive)
16,CC(C)CC(NC(=O)CCCNC(=O)CCC(=O)OC1O[C@H]2OC3(C)CC[C@H]4[C@H](C)CCC(C1C)C24OO3)C(=O)O (some centres not stated),> 20 µM (inactive)
17,O=C(Nc1nc(-c2cccs2)cs1)c1cccc(S(=O)(=O)N2CCCCCC2)c1,> 20 µM (inactive)
18,COC(=O)c1cc(S(=O)(=O)N2CCC(c3cc(OC)ccc3OC)C2)c[nH]1 (configuration not stated),> 20 µM (inactive)
19,CCCCOc1ncnc2c1[nH]c1ccc(F)cc12,> 20 µM (inactive)
20,CC(C)CCOC(=O)C[N+](C)(C)CCOC1CC2CCC1(C)C2(C)C (configuration not stated),> 20 µM (inactive)
21,COc1cc(C(=O)NC2CCN(C)CC2)ccc1Nc1ncc2c(n1)N(C1CCCCC1)CCC(=O)N2C,15.7 µM
22,CC(C)C(=O)NC(=S)/C=C1/N(C)c2ccccc2C1(C)C,> 20 µM (inactive)
23,O=C(Cn1cc(C(=O)C2CC2)c2ccccc21)Nc1ccccc1Cl,> 20 µM (inactive)

row,SMILES,IC50
1,COc1cccc2nc3c(C(=O)NCCN(C)C)cccc3cc12,10.6 µM
2,O=C(NC1CCCC1)c1cc(COc2ccc3ncccc3c2)on1,> 20 µM (inactive)
3,CC(CC(=O)N1CCN(c2cccc(Cl)c2)CC1)S(=O)(=O)c1ccc2c(c1)NC(=O)CO2 (configuration not stated),> 20 µM (inactive)
4,CCCc1nc(SCC(=O)Nc2nnc(CC)s2)c2c(=O)n(C)c(=O)n(C)c2n1,> 20 µM (inactive)
5,Cc1ccc(OCCN2CCN(c3ncnc4sc(C)c(C)c34)CC2)cc1,> 20 µM (inactive)
6,C(#Cc1ccccc1)C[N+]1(CC#Cc2cccc3ccccc23)CCCC1,> 20 µM (inactive)
7,CNc1nc(NCc2ccccc2)c2ccccc2n1,> 20 µM (inactive)
8,Cc1ccc(NCC(=O)Nc2cccc(S(=O)(=O)N(C)C)c2)cc1S(=O)(=O)N1CCCCCC1,> 20 µM (inactive)
9,Cc1cccnc1CN1CCN(C(=O)c2cc(COc3ccc4ncccc4c3)on2)CC1,> 20 µM (inactive)
10,CCCCOC(=O)c1[nH]c2c(c1C)C(=O)CC(c1cc(OC)c(OC)c(OC)c1)C2 (configuration not stated),> 20 µM (inactive)
11,Cc1sc2ncnc(NCC(O)c3ccc([N+](=O)[O-])cc3)c2c1C (configuration not stated),> 20 µM (inactive)
12,COc1ccccc1N1CCN(c2ncc(C(=O)N3CCN(c4cccc(Cl)c4)CC3)c3ccccc23)CC1,> 20 µM (inactive)
13,CC(C)=CCC/C(C)=C/CNC(=O)C[C@H]1C[C@H](C(=O)N2CCOCC2)[C@@]2(C)c3[nH]c4cc(CCC(=O)N(C)C)ccc4c3CCN2C1=O,> 20 µM (inactive)
14,O=C(c1cc2nc(-c3ccc(F)cc3)cc(C(F)(F)F)n2n1)N1CCCCC1c1cccnc1 (configuration not stated),> 20 µM (inactive)
15,CCn1c(=NC(=O)CS(=O)(=O)c2ccccc2)sc2cccc(OC)c21,> 20 µM (inactive)
16,O=C(/C=C/c1ccco1)Nc1ccc(-c2nc3ccccc3[nH]2)cc1,> 20 µM (inactive)
17,COc1ccc(Nc2nc(N3CCOCC3)nc(N3CCOCC3)n2)c(OC)c1,> 20 µM (inactive)
18,COc1ccccc1C(=O)NC(=S)/C=C1/N(C)c2ccccc2C1(C)C,> 20 µM (inactive)
19,CCOc1ccc(-n2c(-c3ccc(Cl)cc3)c[n+]3c2SCC3)cc1,19 µM
20,CCCCn1c(SCc2c(C)noc2C)nc2cc(S(N)(=O)=O)ccc21,> 20 µM (inactive)
21,Cc1ncoc1C(=O)NC1CCCc2c1cnn2-c1ccc(C(C)(C)C)cc1 (configuration not stated),> 20 µM (inactive)
22,Cn1c(=O)c2c(nc(NCCOc3ccc(C(C)(C)C)cc3)n2C)n(C)c1=O,> 20 µM (inactive)
23,C/C(=N\Nc1ccc(Cl)nn1)c1ccccc1O,> 20 µM (inactive)

row,SMILES,IC50
1,CCN(CC)S(=O)(=O)c1ccc(S(=O)(=O)N2CCCC(C(=O)NC3CC3)C2)cc1 (configuration not stated),> 20 µM (inactive)
2,C=CCOC(=O)c1[nH]c2c(c1C)C(=O)CC(c1cc(OC)c(OC)c(OC)c1)C2 (configuration not stated),> 20 µM (inactive)
3,CC(=O)c1cn(Cc2ccccc2F)c2ccccc12,> 20 µM (inactive)
4,CC[N+](C)(CC)CCC(c1ccccc1)C1CCCCC1 (configuration not stated),> 20 µM (inactive)
5,Cc1nc2ccccc2n1Cc1ccc(Br)cc1,> 20 µM (inactive)
6,Cc1csc2ncnc(NCCc3ccccn3)c12,> 20 µM (inactive)
7,CC(NC(=O)c1cc2c(=O)n3ccccc3nc2n(CC2CCCO2)c1=N)c1ccccc1 (configuration not stated),> 20 µM (inactive)
8,CCCCOCCCNc1ncnc2c1[nH]c1ccccc12,> 20 µM (inactive)
9,COc1ccccc1CN(Cc1nc2ccccc2c(=O)[nH]1)S(=O)(=O)c1ccc(C)cc1,> 20 µM (inactive)
10,CCCCOc1ccc(N2C(N)=NC(N)=NC23CCCCC3)cc1,> 20 µM (inactive)
11,Cc1nc2sccn2c1-c1csc(NCc2ccccc2)n1,> 20 µM (inactive)
12,COc1cccc(CN(C)C(=O)c2cc(COc3ccc4ncccc4c3)on2)c1,> 20 µM (inactive)
13,COc1ccc(Cn2c(-c3ccc(Cl)cc3)c[n+]3ccccc23)cc1,> 20 µM (inactive)
14,CCc1nc(N)nc(N)c1-c1ccc(N(C)Cc2ccccc2)c([N+](=O)[O-])c1,18.4 µM
15,O=C1N/C(=C\c2ccc(O)cc2)C(O)=C1C=NCc1ccccc1,4.41 µM
16,C=C(C)CSc1nc2sc3c(c2c(=O)n1C1CCCCC1)CCN(C)C3,> 20 µM (inactive)
17,COc1ccc(CN(C)Cc2nc(Cc3cccc(F)c3)no2)c2cccnc12,> 20 µM (inactive)
18,Cc1ccc(S(=O)(=O)N2CCN(C(=O)C3CCN(c4ncnc5sc(C)c(C)c45)CC3)CC2)c(C)c1,> 20 µM (inactive)
19,Cc1nc2ccccc2c2c1CC(C(C)(Cl)Br)O2 (configuration not stated),> 20 µM (inactive)
20,CC(=O)c1c(C)[nH]c(C(=O)OCC(=O)Nc2ccc(C)cc2[N+](=O)[O-])c1C,18.9 µM
21,CCOC(=O)c1c(NC(=O)C(=O)N/N=C/c2ccccc2O)sc2c1CCCCC2,19 µM
22,COc1cccc(/C=C/c2ccncc2)c1OC,> 20 µM (inactive)
23,CC(Sc1nc2ccccc2c(=O)n1C)C(=O)NC1CCCCC1C (configuration not stated),16.7 µM

row,SMILES,IC50
1,O=C(N[C@@H]1C/C=C\C[C@@H](CC(=O)N(CCO)Cc2ccccc2)C(=O)N[C@@H](c2ccccc2)COC1=O)OCC1c2ccccc2-c2ccccc21,> 20 µM (inactive)
2,Cc1cc(NC(=O)CSc2nc3c([nH]c4ccccc43)c(=O)n2-c2ccccc2F)no1,> 20 µM (inactive)
3,c1ccc(Cn2c(-c3ccccc3)c[n+]3c2SCCC3)cc1,> 20 µM (inactive)
4,CCOC(=O)CC1CCCCN1C(=O)c1cc(COc2cccc3cnccc23)on1 (configuration not stated),> 20 µM (inactive)
5,Cc1cc(-c2ccccc2)cc(-c2ccccc2)[n+]1C,> 20 µM (inactive)
6,CCOC(=O)c1c(NC(=O)COc2cccc3c2CCN(C)C3=O)sc2c1CCC2,> 20 µM (inactive)
7,O=C(N[C@@H]1C/C=C\C[C@@H](CC(=O)N(CCO)Cc2ccccc2)C(=O)NCCOC1=O)OCC1c2ccccc2-c2ccccc21,> 20 µM (inactive)
8,CCC(C)NC(=O)CCC(=O)OC1O[C@H]2OC3(C)CC[C@H]4[C@H](C)CCC(C1C)C24OO3 (some centres not stated),> 20 µM (inactive)
9,O=C(Nc1ccccc1)C1=C[C@@H](C2CCCCC2)C[C@@H](OCCCCO)O1,> 20 µM (inactive)
10,CCOc1ccc(-n2c(O)c(/C=N/Nc3nc(C)cc(C)n3)c3ccccc3c2=O)cc1,> 20 µM (inactive)
11,O=C(Nc1cc(N2CCCCC2)ncn1)c1ccccc1,> 20 µM (inactive)
12,COc1ccc(C(C(=O)NC2CCCCC2)N(C(=O)CCl)c2ccc(Cl)cc2)cc1 (configuration not stated),4.86 µM
13,O=C(Cn1cnc2ccccc21)Nc1cccc(S(=O)(=O)N2CCCC2)c1,> 20 µM (inactive)
14,N=c1c(-c2nc3ccccc3[nH]2)cc(C(=O)c2ccco2)nn1-c1ccccc1,> 20 µM (inactive)
15,O=C(NCCc1cccc(Cl)c1)c1ccc(OC2CCN(Cc3ccccn3)CC2)cc1,> 20 µM (inactive)
16,CC(=O)c1cccc(NS(=O)(=O)c2ccc(-c3cnc(C4CC4)o3)cc2)c1,6.78 µM
17,COc1ccc(CN(C)C(=O)c2cccc(NC(=O)CC3SC(N4CCCCC4)=NC3=O)c2)c(OC)c1 (configuration not stated),> 20 µM (inactive)
18,CCc1cc(C(=O)NC2CCCN(Cc3ccccc3F)C2)n(C)n1 (configuration not stated),> 20 µM (inactive)
19,COCCn1c(CN2CCC(Cc3ccccc3)CC2)nc2c1c(=O)n(C)c(=O)n2C,> 20 µM (inactive)
20,Cc1ccc(-c2c[n+](Cc3ccc(Cl)c(Cl)c3)c3n2CCC3)cc1,13.7 µM
21,COc1ccccc1CCNC(=O)C(=O)NCCC1CCCCN1S(=O)(=O)c1cccs1 (configuration not stated),13.1 µM
22,CCN(CC)C(=O)c1ccc(S(=O)(=O)N2CCC(c3nc4ccccc4s3)CC2)cc1,> 20 µM (inactive)
23,Cc1cc(C)c[n+](C(C)C(=O)c2ccc(-c3ccccc3)cc2)c1 (configuration not stated),> 20 µM (inactive)
